Data taken from the NIST ThermoML archive (doi:10.1016/j.jct.2012.09.011).

Assay: cn = amount concentration of the nth substance listed, in mol/dm3
Settings: 310.15 K, 101 kPa, Liquid, Taylor dispersion method

[Cl][Cd][Cl] [cadmium chloride] + O
Settings	binary diffusion coefficient [m2/s]
c1 = 0	1.39e-09
c1 = 0.001	1.34e-09
c1 = 0.003	1.32e-09
c1 = 0.005	1.28e-09
c1 = 0.008	1.28e-09
c1 = 0.01	1.28e-09
c1 = 0.05	1.2e-09
c1 = 0.1	1.2e-09
c1 = 0.4	1.26e-09
